Source: patent publication US5206227A, “Composition and use of phosphonic acid, (2-halo-2-cyanoethenyl)-dialkyl esters as antimicrobials” (priority 1992, dated 1993)

How the values were obtained:
Bacillus subtilis = test: Minimum inhibitory concentration (MIC), nutrient agar; assay type: cell-based, Bacillus subtilis (ATCC 8473); conditions: Bs, 30° C., 48 hours
Method: (§1) The minimum inhibitory concentration (MIC) for compounds of this invention, listed in Table I, is determined for 9 bacteria, using nutrient agar, and 7 yeast and fungi, using malt yeast agar. A one percent solution of a compound is prepared in a mixture of acetone and water. Nutrient agar is prepared at pH 6.8, representing a neutral medium, and at pH 8.2, representing an alkaline medium. The nutrient agars are prepared by adding 23 g of nutrient agar to one-liter of deionized water. In addition, the alkaline medium is prepared by adjusting a 0.04M solution of N-[tris-(hydroxymethyl)methyl]-glycine buffered deionized water with concentrated sodium hydroxide to a pH of […]. Malt yeast agar is prepared by adding 3 g yeast extract and 45 g malt agar per liter of deionized water. The specific agar is dispensed in 30 ml aliquots into 25×200 mm test tubes, capped and autoclaved for 15 minutes at 115° C. The test tubes containing the agar are cooled in a water bath until the temperature of the agar is 48° C. Then, an appropriate amount of the one percent solution of the compound is added (except in the controls where no compound is added) to the respective test tubes so that the final concentrations are 500, 250, 100, 50, 25, 10, 5, 2.5, 1.0 and zero parts per million of the compound in the agar, thus having a known concentration of compound dispersed therein. The contents of the test tubes are then transferred to respective petri plates. After drying for 24 hours, the petri plates containing nutrient agar are inoculated with bacteria and those containing malt yeast agar are inoculated with yeast and fungi.
(§2) The inoculation with bacteria is accomplished by using the following procedure. Twenty-four hour-cultures of each of the bacteria are prepared by incubating the respective bacteria in tubes containing nutrient broth for 24 hours at 30° C. in a shaker. Dilutions of each of the 24 hour-cultures are made so that nine separate suspensions (one for each of the nine test bacteria) are made, each containing 10^8 colony forming units (CFU) per milliliter of suspension of a particular bacteria. Aliquots of 0.3 ml of each of the bacterial suspensions are used to fill the individual wells of Steer's Replicator. For each microbial suspension 0.3 ml was used to fill three wells (i.e., three wells of 0.3 ml each) […] to inoculate both the neutral and alkaline pH nutrient agar petri plates.
(§3) The inoculated petri plates are incubated at 30° C. for 48 hours and then read to determine if the compound which is incorporated into the agar prevented growth of the respective bacteria. […]

Enterobacter aerogenes = test: as above; assay type: cell-based, Enterobacter aerogenes (ATCC 13048); conditions: Ea, 30° C., 48 hours
Method: as §1, §2, §3

Escherichia coli = test: as above; assay type: cell-based, Escherichia coli (ATCC 11229); conditions: Ec, 30° C., 48 hours
Method: as §1, §2, §3

Klebsiella pneumoniae = test: as above; assay type: cell-based, Klebsiella pneumoniae (ATCC 8308); conditions: Kp, 30° C., 48 hours
Method: as §1, §2, §3

Proteus vulgaris = test: as above; assay type: cell-based, Proteus vulgaris (ATCC 881); conditions: Pv, 30° C., 48 hours
Method: as §1, §2, §3

[1] = system: Pseudomonas aeruginosa (PRD-10); test: as above; assay type: cell-based, Pseudomonas aeruginosa (ATCC 15442); conditions: 30° C., 48 hours
Method: as §1, §2, §3

[2] = system: Pseudomonas aeruginosa (Pa); test: as above; assay type: cell-based, Pseudomonas aeruginosa (ATCC 10145); conditions: 30° C., 48 hours
Method: as §1, §2, §3

Salmonella choleraesuis = test: as above; assay type: cell-based, Salmonella choleraesuis (ATCC 10708); conditions: Sc, 30° C., 48 hours
Method: as §1, §2, §3

Staphylococcus aureus = test: as above; assay type: cell-based, Staphylococcus aureus (ATCC 6538); conditions: Sa, 30° C., 48 hours
Method: as §1, §2, §3

Aspergillus niger = test: Minimum inhibitory concentration (MIC), malt yeast agar; assay type: cell-based, Aspergillus niger (ATCC 16404); conditions: An, 30° C., 72 hours (fungi)
Method: (§4) The minimum inhibitory concentration (MIC) for compounds of this invention, listed in Table I, is determined for 9 bacteria, using nutrient agar, and 7 yeast and fungi, using malt yeast agar. A one percent solution of a compound is prepared in a mixture of acetone and water. Nutrient agar is prepared at pH 6.8, representing a neutral medium, and at pH 8.2, representing an alkaline medium. The nutrient agars are prepared by adding 23 g of nutrient agar to one-liter of deionized water. In addition, the alkaline medium is prepared by adjusting a 0.04M solution of N-[tris-(hydroxymethyl)methyl]-glycine buffered deionized water with concentrated sodium hydroxide to a pH of […]. Malt yeast agar is prepared by adding 3 g yeast extract and 45 g malt agar per liter of deionized water. The specific agar is dispensed in 30 ml aliquots into 25×200 mm test tubes, capped and autoclaved for 15 minutes at 115° C. The test tubes containing the agar are cooled in a water bath until the temperature of the agar is 48° C. […]
(§5) The inoculation with the yeast and fungi is accomplished as follows. […] The petri plates are incubated at 30° C. and read after 48 hours for yeast and 72 hours for fungi. […]

Candida albicans = test: as above; assay type: cell-based, Candida albicans (ATCC 10231); conditions: Ca, 30° C., 48 hours (yeast)
Method: as §4, §5

Penicillium chrysogenum = test: as above; assay type: cell-based, Penicillium chrysogenum (ATCC 9480); conditions: Pc, 30° C., 72 hours (fungi)
Method: as §4, §5

Saccharomyces cerevisiae = test: as above; assay type: cell-based, Saccharomyces cerevisiae (ATCC 4105); conditions: Sc, 30° C., 48 hours (yeast)
Method: as §4, §5

Trichoderma viride = test: as above; assay type: cell-based, Trichoderma viride (ATCC 8678); conditions: Tv, 30° C., 72 hours (fungi)
Method: as §4, §5

Fusarium oxysporum = test: as above; assay type: cell-based, Fusarium oxysporum (ATCC 48112); conditions: Fo, 30° C., 72 hours (fungi)
Method: as §4, §5

| SMILES | Minimum Inhibitory Concentration (MIC) (Bacillus subtilis; pH 6.8, nutrient agar) [ppm] | Minimum Inhibitory Concentration (MIC) (Bacillus subtilis; pH 8.2, nutrient agar) [ppm] | Minimum Inhibitory Concentration (MIC) (Enterobacter aerogenes; pH 6.8, nutrient agar) [ppm] | Minimum Inhibitory Concentration (MIC) (Enterobacter aerogenes; pH 8.2, nutrient agar) [ppm] | Minimum Inhibitory Concentration (MIC) (Escherichia coli; pH 6.8, nutrient agar) [ppm] | Minimum Inhibitory Concentration (MIC) (Escherichia coli; pH 8.2, nutrient agar) [ppm] | Minimum Inhibitory Concentration (MIC) (Klebsiella pneumoniae; pH 6.8, nutrient agar) [ppm] | Minimum Inhibitory Concentration (MIC) (Klebsiella pneumoniae; pH 8.2, nutrient agar) [ppm] | Minimum Inhibitory Concentration (MIC) (Proteus vulgaris; pH 6.8, nutrient agar) [ppm] | Minimum Inhibitory Concentration (MIC) (Proteus vulgaris; pH 8.2, nutrient agar) [ppm] | Minimum Inhibitory Concentration (MIC) ([1]; pH 6.8, nutrient agar) [ppm] | Minimum Inhibitory Concentration (MIC) ([1]; pH 8.2, nutrient agar) [ppm] | Minimum Inhibitory Concentration (MIC) ([2]; pH 6.8, nutrient agar) [ppm] | Minimum Inhibitory Concentration (MIC) ([2]; pH 8.2, nutrient agar) [ppm] | Minimum Inhibitory Concentration (MIC) (Salmonella choleraesuis; pH 6.8, nutrient agar) [ppm] | Minimum Inhibitory Concentration (MIC) (Salmonella choleraesuis; pH 8.2, nutrient agar) [ppm] | Minimum Inhibitory Concentration (MIC) (Staphylococcus aureus; pH 6.8, nutrient agar) [ppm] | Minimum Inhibitory Concentration (MIC) (Staphylococcus aureus; pH 8.2, nutrient agar) [ppm] | Minimum Inhibitory Concentration (MIC) (Aspergillus niger) [ppm] | Minimum Inhibitory Concentration (MIC) (Candida albicans) [ppm] | also measured |
| --- | --- | --- | --- | --- | --- | --- | --- | --- | --- | --- | --- | --- | --- | --- | --- | --- | --- | --- | --- | --- | --- |
| COP(=O)(C=C(Cl)C#N)OC [Compound A, Phosphonic acid, (2-chloro-2-cyanoethenyl)-dimethyl ester] | 25 | 500 | 500 | > 500 | 250 | > 500 | 250 | 500 | 250 | > 500 | 500 | > 500 | 500 | > 500 | 250 | > 500 | 50 | > 10 | 250 | 100 | Minimum Inhibitory Concentration (MIC) (Penicillium chrysogenum): 50 ppm; Minimum Inhibitory Concentration (MIC) (Saccharomyces cerevisiae): 100 ppm; Minimum Inhibitory Concentration (MIC) (Trichoderma viride): 100 ppm; Minimum Inhibitory Concentration (MIC) (Fusarium oxysporum): 50 ppm |
| CCOP(=O)(C=C(Cl)C#N)OCC [Compound B, Phosphonic acid, (2-chloro-2-cyanoethenyl)-diethyl ester] | 25 | > 500 | 100 | > 500 | 50 | > 500 | 50 | > 500 | 25 | > 500 | 250 | > 500 | 250 | > 500 | 25 | > 500 | 25 | > 500 | 250 | 100 | Minimum Inhibitory Concentration (MIC) (Penicillium chrysogenum): 100 ppm; Minimum Inhibitory Concentration (MIC) (Saccharomyces cerevisiae): 250 ppm; Minimum Inhibitory Concentration (MIC) (Trichoderma viride): 100 ppm; Minimum Inhibitory Concentration (MIC) (Fusarium oxysporum): 50 ppm |
